# Data published in PubChem BioAssay (NCI).
#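 Exposure lasted 48 hours, with cells grown in 96-well plates and compounds tested at five concentrations. GI50 is the concentration that inhibits growth by half. TGI denotes the concentration required for complete inhibition of growth.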
# Legend:
# Assay in all cases: inhibition of tumour cell growth, NCI panel, 48 h
# DU-145 prostate = system: DU-145 prostate
# SF-295 CNS = system: SF-295 CNS
# T-47D breast = system: T-47D breast
# RXF 393 renal = system: RXF 393 renal
# CAKI-1 renal = system: CAKI-1 renal
# SK-MEL-28 melanoma = system: SK-MEL-28 melanoma
# NCI-H522 lung = system: NCI-H522 lung
# SNB-19 CNS = system: SNB-19 CNS
# HCT-15 colon = system: HCT-15 colon
# BT-549 breast = system: BT-549 breast
# PC-3 prostate = system: PC-3 prostate
# LOX IMVI melanoma = system: LOX IMVI melanoma
# MOLT-4 leukemia = system: MOLT-4 leukemia
# KM12 colon = system: KM12 colon
# MDA-MB-435 = system: MDA-MB-435
# HL-60(TB) leukemia = system: HL-60(TB) leukemia
# OVCAR-3 ovarian = system: OVCAR-3 ovarian
# 786-0 renal = system: 786-0 renal
# A549 NSCLC = system: A549 NSCLC
# CCRF-CEM leukemia = system: CCRF-CEM leukemia
# MALME-3M melanoma = system: MALME-3M melanoma
# A498 renal = system: A498 renal
# NCI-H226 lung = system: NCI-H226 lung
# HCC-2998 colon = system: HCC-2998 colon
# K-562 leukemia = system: K-562 leukemia
# ACHN renal = system: ACHN renal
# SNB-75 CNS = system: SNB-75 CNS
# HOP-62 NSCLC = system: HOP-62 NSCLC
# MDA-MB-231 breast = system: MDA-MB-231 breast
# SK-OV-3 ovarian = system: SK-OV-3 ovarian
# SW-620 colon = system: SW-620 colon
# UACC-62 melanoma = system: UACC-62 melanoma
# TK-10 renal = system: TK-10 renal
# COLO 205 colon = system: COLO 205 colon
# NCI-H23 lung = system: NCI-H23 lung
# NCI-H460 lung = system: NCI-H460 lung
# HT29 colon = system: HT29 colon
# NCI/ADR-RES ovarian = system: NCI/ADR-RES ovarian
# U251 CNS = system: U251 CNS
# SR leukemia = system: SR leukemia
# SK-MEL-5 melanoma = system: SK-MEL-5 melanoma
# EKVX NSCLC = system: EKVX NSCLC
# MCF7 breast = system: MCF7 breast
# UO-31 renal = system: UO-31 renal
# RPMI-8226 leukemia = system: RPMI-8226 leukemia
# HOP-92 NSCLC = system: HOP-92 NSCLC
# SK-MEL-2 melanoma = system: SK-MEL-2 melanoma
# HS 578T breast = system: HS 578T breast
# HCT-116 colon = system: HCT-116 colon
# M14 melanoma = system: M14 melanoma
# SN12C renal = system: SN12C renal
# SF-268 CNS = system: SF-268 CNS
# OVCAR-4 ovarian = system: OVCAR-4 ovarian
# IGROV1 ovarian = system: IGROV1 ovarian
# OVCAR-8 ovarian = system: OVCAR-8 ovarian
# OVCAR-5 ovarian = system: OVCAR-5 ovarian
# SF-539 CNS = system: SF-539 CNS
smiles,measurement,setting,value
CCC#CC[C@H]1C/C=C2/C(=O)C=C[C@@H]2C/C=C\CCCC(=O)O1,GI50,DU-145 prostate,1370 nM
same,TGI,DU-145 prostate,6240 nM
same,GI50,SF-295 CNS,1430 nM
same,TGI,SF-295 CNS,4360 nM
same,GI50,T-47D breast,1350 nM
same,TGI,T-47D breast,10200 nM
same,GI50,RXF 393 renal,945 nM
same,TGI,RXF 393 renal,1960 nM
same,GI50,CAKI-1 renal,935 nM
same,TGI,CAKI-1 renal,2100 nM
same,GI50,SK-MEL-28 melanoma,1170 nM
same,TGI,SK-MEL-28 melanoma,3830 nM
same,GI50,NCI-H522 lung,663 nM
same,TGI,NCI-H522 lung,1830 nM
same,GI50,SNB-19 CNS,1480 nM
same,TGI,SNB-19 CNS,7020 nM
same,GI50,HCT-15 colon,670 nM
same,TGI,HCT-15 colon,2140 nM
same,GI50,BT-549 breast,1110 nM
same,TGI,BT-549 breast,3270 nM
same,GI50,PC-3 prostate,1350 nM
same,TGI,PC-3 prostate,6050 nM
same,GI50,LOX IMVI melanoma,698 nM
same,TGI,LOX IMVI melanoma,1500 nM
same,GI50,MOLT-4 leukemia,1240 nM
same,TGI,MOLT-4 leukemia,3960 nM
same,GI50,KM12 colon,848 nM
same,TGI,KM12 colon,2160 nM
same,GI50,MDA-MB-435,680 nM
same,TGI,MDA-MB-435,2180 nM
same,GI50,HL-60(TB) leukemia,1070 nM
same,TGI,HL-60(TB) leukemia,4230 nM
same,GI50,OVCAR-3 ovarian,568 nM
same,TGI,OVCAR-3 ovarian,3310 nM
same,GI50,786-0 renal,1060 nM
same,TGI,786-0 renal,2400 nM
same,GI50,A549 NSCLC,1240 nM
same,TGI,A549 NSCLC,4030 nM
same,GI50,CCRF-CEM leukemia,791 nM
same,TGI,CCRF-CEM leukemia,5000 nM
same,GI50,MALME-3M melanoma,1130 nM
same,TGI,MALME-3M melanoma,3240 nM
same,GI50,A498 renal,1080 nM
same,TGI,A498 renal,2490 nM
same,GI50,NCI-H226 lung,1270 nM
same,TGI,NCI-H226 lung,5260 nM
same,GI50,HCC-2998 colon,991 nM
same,TGI,HCC-2998 colon,1800 nM
same,GI50,K-562 leukemia,661 nM
same,TGI,K-562 leukemia,4440 nM
same,GI50,ACHN renal,763 nM
same,TGI,ACHN renal,1560 nM
same,GI50,SNB-75 CNS,4380 nM
same,TGI,SNB-75 CNS,10800 nM
same,GI50,HOP-62 NSCLC,1020 nM
same,TGI,HOP-62 NSCLC,3260 nM
same,GI50,MDA-MB-231 breast,1850 nM
same,TGI,MDA-MB-231 breast,9280 nM
same,GI50,SK-OV-3 ovarian,2360 nM
same,TGI,SK-OV-3 ovarian,7740 nM
same,GI50,SW-620 colon,642 nM
same,TGI,SW-620 colon,4150 nM
same,GI50,UACC-62 melanoma,559 nM
same,TGI,UACC-62 melanoma,1800 nM
same,GI50,TK-10 renal,1740 nM
same,TGI,TK-10 renal,4590 nM
same,GI50,COLO 205 colon,961 nM
same,TGI,COLO 205 colon,2100 nM
same,GI50,NCI-H23 lung,873 nM
same,TGI,NCI-H23 lung,2030 nM
same,GI50,NCI-H460 lung,1140 nM
same,TGI,NCI-H460 lung,3650 nM
same,GI50,HT29 colon,894 nM
same,TGI,HT29 colon,2390 nM
same,GI50,NCI/ADR-RES ovarian,1010 nM
same,TGI,NCI/ADR-RES ovarian,17200 nM
same,GI50,U251 CNS,706 nM
same,TGI,U251 CNS,2240 nM
same,GI50,SR leukemia,328 nM
same,TGI,SR leukemia,4260 nM
same,GI50,SK-MEL-5 melanoma,854 nM
same,TGI,SK-MEL-5 melanoma,1710 nM
same,GI50,EKVX NSCLC,1900 nM
same,TGI,EKVX NSCLC,7420 nM
same,GI50,MCF7 breast,203 nM
same,TGI,MCF7 breast,5820 nM
same,GI50,UO-31 renal,730 nM
same,TGI,UO-31 renal,1560 nM
same,GI50,RPMI-8226 leukemia,267 nM
same,TGI,RPMI-8226 leukemia,1860 nM
same,GI50,HOP-92 NSCLC,1940 nM
same,TGI,HOP-92 NSCLC,6330 nM
same,GI50,SK-MEL-2 melanoma,1170 nM
same,TGI,SK-MEL-2 melanoma,3520 nM
same,GI50,HS 578T breast,1960 nM
same,TGI,HS 578T breast,14800 nM
same,GI50,HCT-116 colon,430 nM
same,TGI,HCT-116 colon,2610 nM
same,GI50,M14 melanoma,1480 nM
same,TGI,M14 melanoma,8610 nM
same,GI50,SN12C renal,954 nM
same,TGI,SN12C renal,2780 nM
same,GI50,SF-268 CNS,1230 nM
same,TGI,SF-268 CNS,4550 nM
same,GI50,OVCAR-4 ovarian,1500 nM
same,TGI,OVCAR-4 ovarian,7940 nM
same,GI50,IGROV1 ovarian,1470 nM
same,TGI,IGROV1 ovarian,4330 nM
same,GI50,OVCAR-8 ovarian,783 nM
same,TGI,OVCAR-8 ovarian,9710 nM
same,GI50,OVCAR-5 ovarian,1740 nM
same,TGI,OVCAR-5 ovarian,6920 nM
same,GI50,SF-539 CNS,1940 nM
same,TGI,SF-539 CNS,7670 nM
